Laboratory results from patent US20200222474A1, “COMPOSITIONS AND METHODS FOR INCREASING PHYTOCHEMICAL BIOAVAILABLITY AND BIOACTIVITY” (North Carolina State University, priority 2017, published 2020).

Test system: L. acidophilus NCFM
Assay: RNA-seq transcriptional analysis of L. acidophilus NCFM growing on plant glycosides
Type: cell-based, Lactobacillus acidophilus
[1] = LBA0329 Putative cell division protein, COG D
[2] = LBA0466 Hypothetical protein, COG C
[3] = LBA0500 MSM operon repressor, COG K
[4] = LBA0545 Hypothetical protein, COG L
[5] = LBA0547 Putative site-specific recombinase, COG L
[6] = LBA0573 Putative transcriptional regulator, COG K
[7] = LBA0607 Putative transcriptional regulator, COG K
[8] = LBA0672 Putative phosphate starvation inducible protein stress related, COG J
[9] = LBA0753 Multi-drug-type permease, COG GEPR
[10] = LBA0886 Sugar kinase-putative transcriptional regulator, COG KG
[11] = LBA0887 Hypothetical protein, COG C
[12] = LBA0897 Putative Cro-like protein, COG K
[13] = LBA0910 L-lactate dehydrogenase, COG C
[14] = LBA1021 Putative transcriptional regulator, COG K
[15] = LBA1220 Pyridine mercuric reductase, COG C
[16] = LBA1392 Mucus binding protein precursor Mub, COG J
[17] = LBA1411 Fumarate reductase flavoprotein subunit, COG CS
[18] = LBA1436 Glycerol uptake facilitator protein, COG G
[19] = LBA1457 Galactose-1-epimerase, COG G
[20] = LBA1458 Galactose-1-phosphate uridylyltransferase, COG G
[21] = LBA1462 Beta-galactosidase, COG G
[22] = LBA1463 Lactose permease, COG G
[23] = LBA1465 Transcription repressor of beta-galactosidasegene, COG K
[24] = LBA1467 Beta-galactosidase large subunit (lactase), COG G
[25] = LBA1468 Beta-galactosidase small subunit, COG G
[26] = LBA1481 D-ribose-binding protein precursor, COG G
[27] = LBA1482 Ribose ABC transporter, COG G
[28] = LBA1483 Ribose ABC transporter ATP binding protein, COG G
[29] = LBA1484 D-ribose pyranase, COG G
[30] = LBA1494 Lincomycin-resistance protein, COG GEPR
[31] = LBA1607 Phosphatidylserine decarboxylase precursor, COG I
[32] = LBA1632 NAD-dependent aldehyde dehydrogenase, COG C
[33] = LBA1653 Nicotinamide mononucleotide, COG H
[34] = LBA1684 Putative PTS system IIA component, COG G
[35] = LBA1689 Maltose-6′-phosphate Oucosidase, COG G
[36] = LBA1700 Transcriptional regulator-type, COG K
[37] = LBA1701 Melibiose operon regulatory protein, COG K
[38] = LBA1705 PTS system IIBC component, COG G
[39] = LBA1708 Transcriptional antiterminator, COG K
[40] = LBA1710 Thermostable pullulanase, COG G
[41] = LBA1812 Alpha-glucosidase II, COG G
[42] = LBA1870 Maltose phosphorylase, COG G
[43] = LBA1872 Oligo-1,6-glucosidase, COG G
[44] = LBA1955 Transcription regulator family protein, COG K
[45] = gene LBA0046 (Hypothetical protein)
[46] = gene LBA0149 (Putative nucleotide-binding protein)
[47] = gene LBA0263 (Hypothetical protein)

Q: Which results are given for `OCc1ccccc1O[C@@H]1O[C@H](CO)[C@@H](O)[C@H](O)[C@H]1O` [Salicin]?
A: Log2 differential normalized TPM ratio compared to glucose (LBA0016 Fructokinase, COG KG): 1.7; Log2 differential normalized TPM ratio compared to lactose (LBA0016 Fructokinase, COG KG): 0.5; Transcripts per million (rpm) (LBA0016 Fructokinase, COG KG): 300.8 rpm; Log2 differential normalized TPM ratio compared to glucose [1]: 0.4; Log2 differential normalized TPM ratio compared to lactose [1]: 0; Transcripts per million (rpm) [1]: 22.1 rpm; Log2 differential normalized TPM ratio compared to glucose [2]: 1.3; Log2 differential normalized TPM ratio compared to lactose [2]: -0.2; Transcripts per million (rpm) [2]: 238.1 rpm; Log2 differential normalized TPM ratio compared to glucose [3]: 1.4; Log2 differential normalized TPM ratio compared to lactose [3]: −0.3; Transcripts per million (rpm) [3]: 138.7 rpm; Log2 differential normalized TPM ratio compared to glucose [4]: 1.8; Log2 differential normalized TPM ratio compared to lactose [4]: −0.3; Transcripts per million (rpm) [4]: 259 rpm; Log2 differential normalized TPM ratio compared to glucose [5]: 1.5; Log2 differential normalized TPM ratio compared to lactose [5]: −0.3; Transcripts per million (rpm) [5]: 32.5 rpm; Log2 differential normalized TPM ratio compared to glucose [6]: −1.1; Log2 differential normalized TPM ratio compared to lactose [6]: −1.2; Transcripts per million (rpm) [6]: 43.7 rpm; Log2 differential normalized TPM ratio compared to glucose [7]: 0.8; Log2 differential normalized TPM ratio compared to lactose [7]: 0.3; Transcripts per million (rpm) [7]: 86.7 rpm; Log2 differential normalized TPM ratio compared to glucose [8]: 1.1; Log2 differential normalized TPM ratio compared to lactose [8]: 0.2; Transcripts per million (rpm) [8]: 3596.1 rpm; Log2 differential normalized TPM ratio compared to glucose [9]: 0.5; Log2 differential normalized TPM ratio compared to lactose [9]: 1.2; Transcripts per million (rpm) [9]: 70.4 rpm; Log2 differential normalized TPM ratio compared to glucose [10]: 0.3; Log2 differential normalized TPM ratio compared to lactose [10]: 0; Transcripts per million (rpm) [10]: 8.1 rpm; Log2 differential normalized TPM ratio compared to glucose [11]: 1.5; Log2 differential normalized TPM ratio compared to lactose [11]: 0.2; Transcripts per million (rpm) [11]: 160.2 rpm; Log2 differential normalized TPM ratio compared to glucose [12]: 0.1; Log2 differential normalized TPM ratio compared to lactose [12]: 2.5; Transcripts per million (rpm) [12]: 2.8 rpm; Log2 differential normalized TPM ratio compared to glucose [13]: 1.2; Log2 differential normalized TPM ratio compared to lactose [13]: 0.2; Transcripts per million (rpm) [13]: 301.8 rpm; Log2 differential normalized TPM ratio compared to glucose [14]: −0.5; Log2 differential normalized TPM ratio compared to lactose [14]: −0.8; Transcripts per million (rpm) [14]: 108.6 rpm; Log2 differential normalized TPM ratio compared to glucose [15]: 1.7; Log2 differential normalized TPM ratio compared to lactose [15]: 0.7; Transcripts per million (rpm) [15]: 654.9 rpm; Log2 differential normalized TPM ratio compared to glucose [16]: 0.1; Log2 differential normalized TPM ratio compared to lactose [16]: 0.3; Transcripts per million (rpm) [16]: 114.4 rpm; Log2 differential normalized TPM ratio compared to glucose [17]: 1.4; Log2 differential normalized TPM ratio compared to lactose [17]: 0.3; Transcripts per million (rpm) [17]: 5.9 rpm; Log2 differential normalized TPM ratio compared to glucose [18]: 3.8; Log2 differential normalized TPM ratio compared to lactose [18]: 0; Transcripts per million (rpm) [18]: 37.6 rpm; Log2 differential normalized TPM ratio compared to glucose [19]: 1.9; Log2 differential normalized TPM ratio compared to lactose [19]: −3.7; Transcripts per million (rpm) [19]: 55.9 rpm; Log2 differential normalized TPM ratio compared to glucose [20]: 1.8; Log2 differential normalized TPM ratio compared to lactose [20]: −3.8; Transcripts per million (rpm) [20]: 48.4 rpm; Log2 differential normalized TPM ratio compared to glucose (LBA1459 Galactokinase, COG G): 0.8; Log2 differential normalized TPM ratio compared to lactose (LBA1459 Galactokinase, COG G): −3.9; Transcripts per million (rpm) (LBA1459 Galactokinase, COG G): 42.2 rpm; Log2 differential normalized TPM ratio compared to glucose [21]: −0.1; Transcripts per million (rpm) [21]: 16.8 rpm; Log2 differential normalized TPM ratio compared to glucose [22]: 0.1; Log2 differential normalized TPM ratio compared to lactose [22]: −4.6; Transcripts per million (rpm) [22]: 62.2 rpm; Log2 differential normalized TPM ratio compared to glucose (LBA1464 Transposase, COG L): 0; Log2 differential normalized TPM ratio compared to lactose (LBA1464 Transposase, COG L): −2.4; Transcripts per million (rpm) (LBA1464 Transposase, COG L): 182.7 rpm; Log2 differential normalized TPM ratio compared to glucose [23]: −0.1; Log2 differential normalized TPM ratio compared to lactose [23]: −3.2; Transcripts per million (rpm) [23]: 52.9 rpm; Log2 differential normalized TPM ratio compared to glucose [24]: 1.5; Log2 differential normalized TPM ratio compared to lactose [24]: −7.3; Transcripts per million (rpm) [24]: 14.9 rpm; Log2 differential normalized TPM ratio compared to glucose [25]: 1; Log2 differential normalized TPM ratio compared to lactose [25]: −5.4; Transcripts per million (rpm) [25]: 43.3 rpm; Log2 differential normalized TPM ratio compared to glucose [26]: 0.4; Log2 differential normalized TPM ratio compared to lactose [26]: −0.4; Transcripts per million (rpm) [26]: 6.4 rpm; Log2 differential normalized TPM ratio compared to glucose [27]: 0.7; Log2 differential normalized TPM ratio compared to lactose [27]: −0.4; Transcripts per million (rpm) [27]: 6.1 rpm; Log2 differential normalized TPM ratio compared to glucose [28]: 0.4; Log2 differential normalized TPM ratio compared to lactose [28]: −0.7; Transcripts per million (rpm) [28]: 4.2 rpm; Log2 differential normalized TPM ratio compared to glucose [29]: 0.2; Log2 differential normalized TPM ratio compared to lactose [29]: −0.5; Transcripts per million (rpm) [29]: 4.5 rpm; Log2 differential normalized TPM ratio compared to glucose (LBA1485 Ribokinase, COG G): 0.5; Log2 differential normalized TPM ratio compared to lactose (LBA1485 Ribokinase, COG G): −0.3; Transcripts per million (rpm) (LBA1485 Ribokinase, COG G): 4.5 rpm; Log2 differential normalized TPM ratio compared to glucose [30]: 0.6; Log2 differential normalized TPM ratio compared to lactose [30]: 0.5; Transcripts per million (rpm) [30]: 8.2 rpm; Log2 differential normalized TPM ratio compared to glucose [31]: 0.9; Log2 differential normalized TPM ratio compared to lactose [31]: −0.2; Transcripts per million (rpm) [31]: 37.9 rpm; Log2 differential normalized TPM ratio compared to glucose [32]: 2; Log2 differential normalized TPM ratio compared to lactose [32]: 0.2; Transcripts per million (rpm) [32]: 300.2 rpm; Log2 differential normalized TPM ratio compared to glucose [33]: 1.3; Log2 differential normalized TPM ratio compared to lactose [33]: 0.7; Transcripts per million (rpm) [33]: 618.8 rpm; Log2 differential normalized TPM ratio compared to glucose [34]: 2.6; Log2 differential normalized TPM ratio compared to lactose [34]: 0.6; Transcripts per million (rpm) [34]: 76.9 rpm; Log2 differential normalized TPM ratio compared to glucose [35]: 3.7; Log2 differential normalized TPM ratio compared to lactose [35]: 2.2; Transcripts per million (rpm) [35]: 47.4 rpm; Log2 differential normalized TPM ratio compared to glucose [36]: 0.1; Log2 differential normalized TPM ratio compared to lactose [36]: −0.4; Transcripts per million (rpm) [36]: 23 rpm; Log2 differential normalized TPM ratio compared to glucose [37]: 1; Log2 differential normalized TPM ratio compared to lactose [37]: 0.2; Transcripts per million (rpm) [37]: 84.1 rpm; Log2 differential normalized TPM ratio compared to glucose [38]: 1.3; Log2 differential normalized TPM ratio compared to lactose [38]: 0.4; Transcripts per million (rpm) [38]: 8.4 rpm; Log2 differential normalized TPM ratio compared to glucose [39]: 1.2; Log2 differential normalized TPM ratio compared to lactose [39]: −0.2; Transcripts per million (rpm) [39]: 1.3 rpm; Log2 differential normalized TPM ratio compared to glucose [40]: 0.5; Log2 differential normalized TPM ratio compared to lactose [40]: 0.1; Transcripts per million (rpm) [40]: 10.8 rpm; Log2 differential normalized TPM ratio compared to glucose (LBA1723 Transposase, COG L): 0.5; Log2 differential normalized TPM ratio compared to lactose (LBA1723 Transposase, COG L): 0.2; Transcripts per million (rpm) (LBA1723 Transposase, COG L): 75.5 rpm; Log2 differential normalized TPM ratio compared to glucose [41]: 2.2; Log2 differential normalized TPM ratio compared to lactose [41]: 0.1; Transcripts per million (rpm) [41]: 75.4 rpm; Log2 differential normalized TPM ratio compared to glucose [42]: −0.9; Log2 differential normalized TPM ratio compared to lactose [42]: 0.2; Transcripts per million (rpm) [42]: 55.6 rpm; Log2 differential normalized TPM ratio compared to glucose (LBA1871 Neopullulanase, COG G): 0.9; Log2 differential normalized TPM ratio compared to lactose (LBA1871 Neopullulanase, COG G): 0.2; Transcripts per million (rpm) (LBA1871 Neopullulanase, COG G): 5.1 rpm; Log2 differential normalized TPM ratio compared to glucose [43]: 1; Log2 differential normalized TPM ratio compared to lactose [43]: 0.6; Transcripts per million (rpm) [43]: 6.2 rpm; Log2 differential normalized TPM ratio compared to glucose (LBA1873 Acetate kinase, COG C): 1.2; Log2 differential normalized TPM ratio compared to lactose (LBA1873 Acetate kinase, COG C): −0.2; Transcripts per million (rpm) (LBA1873 Acetate kinase, COG C): 8.3 rpm; Log2 differential normalized TPM ratio compared to glucose (LBA1878 Glycerol kinase, COG C): 0.1; Log2 differential normalized TPM ratio compared to lactose (LBA1878 Glycerol kinase, COG C): 0; Transcripts per million (rpm) (LBA1878 Glycerol kinase, COG C): 9.3 rpm; Log2 differential normalized TPM ratio compared to glucose [44]: −0.3; Log2 differential normalized TPM ratio compared to lactose [44]: 0.1; Transcripts per million (rpm) [44]: 428.6 rpm; number of up-regulated genes (RNA-seq, compared to glucose): 33 genes; number of uniquely induced genes (RNA-seq, up-regulated genes not shared with the other PGs): 0; Log2 differential normalized TPM ratio compared to glucose [45]: −0.2; Log2 differential normalized TPM ratio compared to lactose [45]: −0.9; Transcripts per million (rpm) [45]: 270.7 rpm; Log2 differential normalized TPM ratio compared to glucose [46]: 1.2; Log2 differential normalized TPM ratio compared to lactose [46]: 0.4; Transcripts per million (rpm) [46]: 1141 rpm; Log2 differential normalized TPM ratio compared to glucose [47]: 0.9; Log2 differential normalized TPM ratio compared to lactose [47]: 0.1; Transcripts per million (rpm) [47]: 30.2 rpm; Log2 differential normalized TPM ratio compared to glucose (gene LBA0282 (Hypothetical protein)): 0.7
